Assay [1] is described as follows: StAR promoter reporter inhibition counter-screen, dose response, counter-screen for LRH-1 inverse agonist project, cell-based, luminescence, luciferase reporter (AID 651969). Type of assay: functional.
Assay [2] addresses Nuclear receptor subfamily 5 group A member 2 (Homo sapiens, UniProt O00482). Type of assay: functional, cell-based.
The next assay deals with Steroidogenic factor 1 (Homo sapiens, UniProt Q13285). Nature of the assay: Counterscreen for inverse agonists of the liver receptor homolog-1 (LRH-1; NR5A2): Luminescence-based cell-based high throughput dose response assay to identify inverse agonists of the Steroidogenic Factor 1 Nuclear Receptor (SF1; NR5A1). The format is functional.
Assay [3] in a line: enhancers of respiration in Yfh1-depleted yeast, dose response, Friedreich's ataxia, plus single-dose screen (AID 1465).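 Also: yeast depleted of Yfh1p frataxin homolog grown on glycerol needing respiration; WST-1 tetrazolium dye reduction as measure of cellular dehydrogenase metabolic activity.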 Type of assay: functional.
Assay [4] addresses Neuropeptide Y receptor type 1 (Homo sapiens, UniProt P25929). Nature of the assay: Fluorescence-based counterscreen for agonists of NPY-Y2: cell-based high-throughput dose response assay for agonists of NPY-Y1. Type of assay: functional.
Assay [5] is described as follows: P. falciparum late gametocyte killing, dose response, luminescence (AID 1117278).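 Also: gametocytes exposed to compound for 24 hours.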 The format is functional, cell-based.
Assay [6] concerns HEK293. The assay is described as follows: Fluorescence-based counterscreen for potentiators or agonists of NPY-Y2: cell-based high-throughput dose response assay to identify inhibitors of cyclic nucleotide gated ion channel (CNGC) activity. In this assay, the parental HEK293 cell line transfected with a cyclic-nucleotide gated ion channel (CNGC)-based cAMP sensor is used to measure inhibition of isoproterenol-induced CNGC activity by test compound. Type of assay: functional. To be noted: Homo sapiens.

Assay [7] concerns the target Neuropeptide Y receptor type 2 (Homo sapiens, UniProt P49146). Nature of the assay: Fluorescence-based cell-based high-throughput dose response assay for agonists of NPY-Y2. [Related pubchem assays: 1703 (Screening assay (CNGC inhibitors).), 1359 (Screening assay (NPY-Y2 potentiators or agonists).), 1304 (Screening assay (NPY-Y1 potentiators or agonists).), 1710 (Screening assay (NPY-Y2 agonists).), 1791 (Summary AID.)]. The format is functional.

Assay [8] in a line: Jurkat T cell cytotoxicity, dose response, cytotoxicity control for P. falciparum gametocyte viability project, luminescence (AID 1117277).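 Also: potency reflects loss of cellular ATP meaning fewer viable cells.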 The format is functional, cell-based.
Assay [9] concerns the target Serine/threonine-protein phosphatase PP1-alpha catalytic subunit (Homo sapiens, UniProt P62136). The assay is described as follows: PP1 phosphatase inhibitors, dose response, biochemical, fluorescence (AID 2403).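 Also: phosphatase turnover of OMFP into fluorescent 3-O-methylfluorescein.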
For assay [10], the target named is Serine/threonine-protein phosphatase (Homo sapiens, UniProt Q9BPW0). Nature of the assay: Counterscreen for inhibitors of PP1: fluorescence-based biochemical high throughput dose response assay to identify inhibitors of Protein Phosphatase 5 (PP5). [Related pubchem assays: 2034 (Summary (PP5 inhibitors)), 1987 (PP5 inhibitors in singlate), 2235 (PP1 inhibitors in singlate)].

Another assay deals with INS1. The assay is described as follows: beta cell apoptosis inhibitors, cytokine rescue, dose response, luminescence, retest (AID 449756).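 Also: cell death triggered by IL-1 beta plus TNF-alpha plus IFN-gamma mixture; protective hits raise ATP signal compared with cytokine alone wells.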 Type of assay: functional, cell-based. The settings on record: Rattus norvegicus.
Assay [11] can be described thus: Artemis endonuclease inhibitor potency, dose response, biochemical, fluorescence intensity (AID 720701).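 Also: Artemis endonuclease enzyme.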 The format is functional.
The nature of assay [12]: cytotoxicity in MIN6 insulinoma cells, dose response, cytotoxicity control, cell-based, mouse insulinoma (AID 2122).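 Also: confirmatory high-throughput counterscreen run to flag cytotoxic compounds; mouse MIN-6 beta cells carrying an insulin promoter eGFP reporter.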 Type of assay: functional.
For assay [13], the system named is Streptococcus sp. 'group A'. The assay is described as follows: growth inhibition of control SK(-) GAS strain, dose response, counter-screen for streptokinase expression inhibitor project, luminescence, kanamycin, BacTiterGlo, confirmation (AID 1900). Type of assay: functional, organism-based.
A further assay deals with Streptococcus. The assay is described as follows: Group A Streptococcus viability loss, dose response, counter-screen for streptokinase expression inhibitor project, luminescence, BacTiterGlo (AID 1915).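 Also: potency for reduction of bacterial viability or growth.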 The format is functional, organism-based. (The purpose of a counterscreen is to sort out artefacts and off-target activity.)
A short description of assay [14]: insulin promoter down-regulators in MIN6 cells, imaging, high-content screening, mouse beta cells (AID 1628). The format is functional.
Assay [15] in a line: inhibitors of SNCA 5'UTR-driven translation, confirmation, luminescence, H4 neuroglioblastoma cells, dose confirmation (AID 2454).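 Also: H4 neuroglioblastoma cells carrying an alpha-synuclein 5'UTR luciferase reporter; potency for inhibition of the luciferase signal.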 The format is functional, cell-based.
Assay [16] in a line: luciferase reporter signal reduction – luminescence, H4-C neuroglioblastoma cells, dose response (AID 2458).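 Also: H4 neuroglioblastoma cells stably carrying a luciferase reporter gene fusion.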 The format is functional, cell-based. Background: Reporter assays use an easily measured gene product as a stand-in for the process of interest.
Assay [17] is described as follows: inhibitors of SNCA 5'UTR-driven reporter translation, confirmation, H4 neuroglioma cells, luminescence (AID 1988). Type of assay: functional, cell-based.
Assay [18] in a line: Luminescence Cell-Based Dose Response HTS to Identify Inhibitors of 5'UTR Stem-Loop Driven Prion Protein mRNA Translation in H4 Neuroglioblastoma Cells. [Related pubchem assays: 1827 (Project Summary), 1813 (Primary HTS)]. Type of assay: functional.
The nature of assay [19]: inhibitors of firefly luciferase expression or activity, dose response, H4 neuroglioma cells, luminescence (AID 1990). Type of assay: functional, cell-based.
Another assay can be described thus: cells. The format is functional, cell-based.
A further assay has as its target Nonstructural protein 1 (Influenza A virus, UniProt Q194T2). The format is functional, Influenza A virus (A/California/07/2009(H1N1)).
In assay [20] the target is Photoreceptor-specific nuclear receptor (Homo sapiens, UniProt Q9Y5X4). Type of assay: functional.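 Also: potency for compounds that break the NR2E3 corepressor complex and count as activators.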
Assay [21] relates to HEK293. The assay is described as follows: optical interference in Abeta FP readout, dose response, artefact control for IDE activator project, biochemical, fluorescence polarization (AID 588442). Type of assay: functional, cell-based. The settings on record: Homo sapiens. In general terms: Polarisation of emitted light reports the rotation of a fluorescent probe.
Assay [22] addresses Ras and Rab interactor 1/Tyrosine-protein kinase ABL1 (Homo sapiens, UniProt P00519+Q13671). Type of assay: functional.
Assay [23] addresses T1, Insulin-degrading enzyme (Homo sapiens, UniProt P14735).
T1 sequence (P14735 whole entry): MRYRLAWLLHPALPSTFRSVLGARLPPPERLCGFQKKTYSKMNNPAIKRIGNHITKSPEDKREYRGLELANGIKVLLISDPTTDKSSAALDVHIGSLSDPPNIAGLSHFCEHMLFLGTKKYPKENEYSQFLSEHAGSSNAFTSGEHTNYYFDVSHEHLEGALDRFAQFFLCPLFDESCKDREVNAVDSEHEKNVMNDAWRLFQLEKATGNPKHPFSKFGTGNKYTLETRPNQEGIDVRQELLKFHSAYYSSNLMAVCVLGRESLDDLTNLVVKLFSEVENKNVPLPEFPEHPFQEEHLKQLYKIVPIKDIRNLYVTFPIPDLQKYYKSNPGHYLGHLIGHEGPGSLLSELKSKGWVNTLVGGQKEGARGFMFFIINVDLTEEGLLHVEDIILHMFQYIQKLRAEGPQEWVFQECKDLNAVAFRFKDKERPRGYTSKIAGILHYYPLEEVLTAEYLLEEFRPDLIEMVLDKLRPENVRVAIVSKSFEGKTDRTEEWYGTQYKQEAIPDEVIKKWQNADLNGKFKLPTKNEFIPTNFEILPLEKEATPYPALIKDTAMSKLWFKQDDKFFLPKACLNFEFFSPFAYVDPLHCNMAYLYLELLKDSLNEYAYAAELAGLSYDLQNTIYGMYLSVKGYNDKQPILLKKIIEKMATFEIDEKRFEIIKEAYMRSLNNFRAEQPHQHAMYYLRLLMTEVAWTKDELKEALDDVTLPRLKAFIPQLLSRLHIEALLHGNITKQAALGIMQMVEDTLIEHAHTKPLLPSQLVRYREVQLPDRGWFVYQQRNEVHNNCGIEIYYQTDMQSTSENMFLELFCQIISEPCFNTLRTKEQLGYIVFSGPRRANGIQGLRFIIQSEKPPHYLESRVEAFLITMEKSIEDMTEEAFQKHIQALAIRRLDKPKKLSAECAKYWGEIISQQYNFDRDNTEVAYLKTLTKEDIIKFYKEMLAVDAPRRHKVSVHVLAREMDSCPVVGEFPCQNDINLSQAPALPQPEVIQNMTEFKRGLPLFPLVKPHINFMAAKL
Nature of the assay: activators of endogenous IDE in HEK cells, dose response, cell-based, fluorescence polarization (AID 588439). Type of assay: functional.

Assay [24] addresses Peroxisome proliferator-activated receptor gamma/Nuclear receptor corepressor 2 (Homo sapiens, UniProt P37231+Q9Y618). The format is functional.
Assay [25] has as its target T1, Insulin-degrading enzyme. Nature of the assay: activators of recombinant IDE enzyme, dose response, counter-screen for IDE activator project, biochemical, fluorescence polarization (AID 588681).
The test system of assay [26] is HEK293. Nature of the assay: HEK cell cytotoxicity by LDH release, dose response, cytotoxicity control for IDE activator project, fluorescence, HEK cells (AID 588440).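 Also: cytotoxicity by LDH release measuring loss of membrane integrity.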 The format is functional, cell-based. To be noted: Homo sapiens.

Each structure is given as a SMILES string. The source made the active and inactive calls.

Chain of Nuclear receptor subfamily 5 group A member 2 (O00482 whole entry): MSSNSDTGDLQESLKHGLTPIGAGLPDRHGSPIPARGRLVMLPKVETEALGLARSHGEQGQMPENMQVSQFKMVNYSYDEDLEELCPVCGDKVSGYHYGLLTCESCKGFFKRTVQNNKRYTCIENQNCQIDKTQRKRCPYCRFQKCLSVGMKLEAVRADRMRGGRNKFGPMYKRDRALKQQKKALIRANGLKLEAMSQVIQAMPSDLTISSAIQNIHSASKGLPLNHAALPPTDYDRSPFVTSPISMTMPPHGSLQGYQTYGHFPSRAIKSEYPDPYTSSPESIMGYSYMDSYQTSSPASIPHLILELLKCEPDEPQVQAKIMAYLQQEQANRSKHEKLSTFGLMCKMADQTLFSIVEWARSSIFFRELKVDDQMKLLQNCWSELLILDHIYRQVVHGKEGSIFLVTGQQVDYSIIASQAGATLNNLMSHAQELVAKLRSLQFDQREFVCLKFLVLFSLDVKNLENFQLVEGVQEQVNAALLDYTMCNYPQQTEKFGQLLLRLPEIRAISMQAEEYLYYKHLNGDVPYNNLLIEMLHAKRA
Chain of Neuropeptide Y receptor type 1 (P25929 whole entry): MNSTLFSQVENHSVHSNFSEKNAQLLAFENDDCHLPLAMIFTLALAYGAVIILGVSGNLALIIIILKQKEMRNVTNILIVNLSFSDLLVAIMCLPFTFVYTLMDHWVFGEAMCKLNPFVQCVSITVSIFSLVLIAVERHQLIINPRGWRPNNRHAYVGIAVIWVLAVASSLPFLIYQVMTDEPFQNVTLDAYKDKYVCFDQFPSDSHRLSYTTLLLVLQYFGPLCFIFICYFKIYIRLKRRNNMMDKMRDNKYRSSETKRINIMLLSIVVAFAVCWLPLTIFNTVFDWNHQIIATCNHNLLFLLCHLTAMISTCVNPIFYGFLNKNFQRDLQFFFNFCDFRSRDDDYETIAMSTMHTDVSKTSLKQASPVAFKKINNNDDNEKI
Chain of Serine/threonine-protein phosphatase (Q9BPW0 whole entry): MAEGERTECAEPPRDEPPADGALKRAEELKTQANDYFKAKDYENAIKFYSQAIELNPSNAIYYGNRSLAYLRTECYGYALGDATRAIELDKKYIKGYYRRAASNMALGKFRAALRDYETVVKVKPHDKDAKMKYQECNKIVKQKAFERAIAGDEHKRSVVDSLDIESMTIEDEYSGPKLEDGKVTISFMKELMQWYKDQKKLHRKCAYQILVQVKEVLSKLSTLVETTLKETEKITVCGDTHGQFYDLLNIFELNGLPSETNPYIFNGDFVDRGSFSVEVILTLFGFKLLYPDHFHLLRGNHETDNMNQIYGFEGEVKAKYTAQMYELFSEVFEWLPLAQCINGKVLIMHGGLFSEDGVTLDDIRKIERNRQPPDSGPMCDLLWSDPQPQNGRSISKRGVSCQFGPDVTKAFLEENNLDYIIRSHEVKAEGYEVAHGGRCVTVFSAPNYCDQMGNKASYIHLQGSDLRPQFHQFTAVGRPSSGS
Chain of Photoreceptor-specific nuclear receptor (Q9Y5X4 whole entry): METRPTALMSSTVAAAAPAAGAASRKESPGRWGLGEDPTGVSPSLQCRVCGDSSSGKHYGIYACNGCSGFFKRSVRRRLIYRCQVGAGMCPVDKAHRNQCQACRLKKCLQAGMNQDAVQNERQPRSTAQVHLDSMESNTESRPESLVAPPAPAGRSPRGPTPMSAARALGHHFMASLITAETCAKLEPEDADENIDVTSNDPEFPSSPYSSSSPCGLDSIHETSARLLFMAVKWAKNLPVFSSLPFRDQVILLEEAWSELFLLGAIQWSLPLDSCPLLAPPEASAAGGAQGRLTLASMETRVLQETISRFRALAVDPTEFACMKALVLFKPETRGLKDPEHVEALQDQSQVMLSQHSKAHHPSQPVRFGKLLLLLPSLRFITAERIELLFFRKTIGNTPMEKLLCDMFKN
Chain of Serine/threonine-protein phosphatase PP1-alpha catalytic subunit (P62136 whole entry): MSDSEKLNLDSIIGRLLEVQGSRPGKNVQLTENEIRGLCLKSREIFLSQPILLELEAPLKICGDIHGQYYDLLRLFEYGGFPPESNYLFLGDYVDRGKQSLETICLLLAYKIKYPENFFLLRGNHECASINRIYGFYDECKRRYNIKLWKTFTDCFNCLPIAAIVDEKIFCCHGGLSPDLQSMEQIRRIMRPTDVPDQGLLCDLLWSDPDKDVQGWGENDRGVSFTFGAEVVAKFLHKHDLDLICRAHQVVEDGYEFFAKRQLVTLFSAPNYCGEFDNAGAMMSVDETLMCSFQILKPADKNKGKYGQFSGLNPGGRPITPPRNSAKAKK
Chain of Ras and Rab interactor 1/Tyrosine-protein kinase ABL1 (P00519 whole entry): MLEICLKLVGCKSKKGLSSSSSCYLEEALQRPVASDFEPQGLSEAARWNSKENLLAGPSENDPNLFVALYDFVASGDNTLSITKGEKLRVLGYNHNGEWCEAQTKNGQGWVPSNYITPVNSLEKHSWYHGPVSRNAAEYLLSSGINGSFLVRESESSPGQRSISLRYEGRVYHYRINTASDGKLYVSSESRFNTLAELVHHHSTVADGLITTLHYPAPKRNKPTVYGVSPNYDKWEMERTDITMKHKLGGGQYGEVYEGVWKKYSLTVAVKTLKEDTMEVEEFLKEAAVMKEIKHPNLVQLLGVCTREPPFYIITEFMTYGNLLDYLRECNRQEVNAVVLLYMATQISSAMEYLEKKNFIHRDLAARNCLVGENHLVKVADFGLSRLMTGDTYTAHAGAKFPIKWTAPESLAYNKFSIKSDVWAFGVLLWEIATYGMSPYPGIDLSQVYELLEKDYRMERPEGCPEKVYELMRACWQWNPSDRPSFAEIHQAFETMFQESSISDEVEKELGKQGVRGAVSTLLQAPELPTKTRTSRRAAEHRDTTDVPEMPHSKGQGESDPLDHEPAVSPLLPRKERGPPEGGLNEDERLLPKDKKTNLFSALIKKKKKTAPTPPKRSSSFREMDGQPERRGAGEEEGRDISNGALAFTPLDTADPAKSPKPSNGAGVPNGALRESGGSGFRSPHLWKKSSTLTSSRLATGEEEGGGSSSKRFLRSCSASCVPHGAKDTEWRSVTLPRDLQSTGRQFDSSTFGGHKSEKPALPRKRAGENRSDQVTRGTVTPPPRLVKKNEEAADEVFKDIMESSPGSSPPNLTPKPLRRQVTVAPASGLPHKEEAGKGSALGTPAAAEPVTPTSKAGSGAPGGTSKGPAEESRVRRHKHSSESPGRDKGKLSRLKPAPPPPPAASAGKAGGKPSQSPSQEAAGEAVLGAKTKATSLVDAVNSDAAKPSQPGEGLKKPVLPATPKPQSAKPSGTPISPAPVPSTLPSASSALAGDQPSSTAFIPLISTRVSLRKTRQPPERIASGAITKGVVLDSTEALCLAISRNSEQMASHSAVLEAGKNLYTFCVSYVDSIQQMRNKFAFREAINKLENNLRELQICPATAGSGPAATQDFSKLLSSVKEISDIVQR
Chain of Ras and Rab interactor 1/Tyrosine-protein kinase ABL1 (Q13671 whole entry): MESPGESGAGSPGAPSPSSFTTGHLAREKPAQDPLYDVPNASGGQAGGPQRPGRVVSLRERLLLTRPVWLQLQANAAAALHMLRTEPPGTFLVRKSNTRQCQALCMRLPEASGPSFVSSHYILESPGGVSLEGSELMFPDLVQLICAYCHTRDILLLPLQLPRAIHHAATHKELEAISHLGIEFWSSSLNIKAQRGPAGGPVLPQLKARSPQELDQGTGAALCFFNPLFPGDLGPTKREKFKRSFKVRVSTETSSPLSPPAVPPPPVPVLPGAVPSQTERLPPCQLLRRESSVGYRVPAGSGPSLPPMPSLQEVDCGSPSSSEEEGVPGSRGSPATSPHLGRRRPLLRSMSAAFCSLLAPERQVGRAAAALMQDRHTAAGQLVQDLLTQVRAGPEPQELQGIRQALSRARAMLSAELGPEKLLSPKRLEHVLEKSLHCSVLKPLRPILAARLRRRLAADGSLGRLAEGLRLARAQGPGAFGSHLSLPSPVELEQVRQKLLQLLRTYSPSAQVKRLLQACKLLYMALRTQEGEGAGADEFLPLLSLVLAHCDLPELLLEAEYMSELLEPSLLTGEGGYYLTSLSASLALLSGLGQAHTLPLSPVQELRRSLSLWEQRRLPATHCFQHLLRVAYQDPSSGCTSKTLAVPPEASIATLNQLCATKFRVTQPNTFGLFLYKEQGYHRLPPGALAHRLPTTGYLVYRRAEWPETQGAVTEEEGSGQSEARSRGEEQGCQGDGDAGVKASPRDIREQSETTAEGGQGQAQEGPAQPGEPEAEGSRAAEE
Chain of Neuropeptide Y receptor type 2 (P49146 whole entry): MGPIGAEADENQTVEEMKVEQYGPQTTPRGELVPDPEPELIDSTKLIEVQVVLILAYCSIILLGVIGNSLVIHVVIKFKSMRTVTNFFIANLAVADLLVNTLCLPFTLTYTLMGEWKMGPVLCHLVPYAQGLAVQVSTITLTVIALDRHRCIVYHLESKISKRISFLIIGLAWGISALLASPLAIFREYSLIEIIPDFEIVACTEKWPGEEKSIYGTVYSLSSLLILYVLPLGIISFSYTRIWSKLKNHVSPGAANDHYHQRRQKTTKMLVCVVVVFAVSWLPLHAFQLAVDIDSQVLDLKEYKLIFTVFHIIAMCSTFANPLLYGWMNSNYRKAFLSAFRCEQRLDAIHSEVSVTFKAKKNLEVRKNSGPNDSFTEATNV
Chain of Nonstructural protein 1 (Q194T2 whole entry): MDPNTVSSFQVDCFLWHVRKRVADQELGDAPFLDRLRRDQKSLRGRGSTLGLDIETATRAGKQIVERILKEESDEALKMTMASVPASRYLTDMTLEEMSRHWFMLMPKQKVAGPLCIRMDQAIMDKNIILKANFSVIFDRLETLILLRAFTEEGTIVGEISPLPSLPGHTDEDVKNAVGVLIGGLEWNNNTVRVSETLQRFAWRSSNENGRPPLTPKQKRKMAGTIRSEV

As to `CC1CC(C)CN(c2cc(N(C)CCO)c([N+](=O)[O-])c3nonc23)C1` (stereo unspecified), the IC50 (commonly the concentration that inhibits the measured activity by half) was 35.9 µM (inactive) in assay [1], 6.21 µM (active) in assay [2] and 2.15 µM (active) on Steroidogenic factor 1. The EC50 (in general, the concentration giving half of the maximal effect) in [3] is > 100 µM (active).

As to `O=C(O)c1ccc(OCc2cn3ccccc3n2)cc1`, the half-maximal effective concentration (EC50) (in [4]; in the assay on HEK293 [6]; in assay [7]) was > 35.4 µM (not active) in each case. For the same compound, the IC50 is > 109 µM (inactive) in assay [5] and > 83.2 µM (inactive) in assay [8].

As for `c1ccc(N2CCN(c3nc(-c4ccccn4)nc4ccccc34)CC2)cc1`, the IC50 in [9] is 6.28 µM (active); in [10] it was > 22.3 µM (not active); in assay [11], 3.59 µM (active); in assay [12], 1.67 µM (active); in assay [14], 2.4 µM (active). In addition, in the assay on INS1, the AC50 (as a rule, the midpoint of the concentration-response curve, whichever way the signal moves) was 3.01 µM (active). The results for the EC50 (in assay [13]; with Streptococcus) were 0.433 µM (active) and 8.15 µM (active), respectively.

Take `CC(C)(C)c1ccc(Oc2ccc(N)cn2)cc1` [LIMANTRAFIN]: the concentration giving a half-maximal response (EC50) was 1.05 µM (active) in [15]; 0.803 µM (active) in assay [16]; < 0.1 µM (active) in assay [17]; 5.68 µM (active) in assay [18]; < 0.1 µM (active) in assay [19]; 2.75 µM (active) in the assay “cells”.

`C[C@@H]1NC(=O)N[C@@H]1CCCCCC(=O)O`: the half-maximal inhibitory concentration (IC50) on Nonstructural protein 1 is 1.57 µM (active); in [20], 0.149 µM (active); in assay [22], 0.0101 µM (active); in assay [24], 1.38 µM (active); in the assay on HEK293 [26], > 89.2 µM (inactive). Further, the values for the EC50 with HEK293 [21], on Insulin-degrading enzyme [23] and on Insulin-degrading enzyme [25] were 11.9 µM (inactive), 7.8 µM (active) and 7.41 µM (active), respectively.

For the origin of these results see ChEMBL document CHEMBL1201862, “PubChem BioAssay data set” (2004).
